# In patent US20240294541A1, “COMPOUNDS CONSTITUTING C20-MODIFIED SALINOMYCIN DERIVATIVES, A METHOD FOR OBTAINING THE SAME, A COMPOSITION CONTAINING THE SAME AND A USE OF SAID COMPOUNDS” (FILECLO SPOLKA Z OGRANICZONA ODPOWIEDZIALNOSCIA, priority 2021, published 2024):
# How the values were obtained:
# Assay type in all cases: cell-based
# [1] = system: NCI-H23 (human lung cancer); assay: In vitro cytotoxicity, SRB assay, NCI-H23; conditions: for IC50: Homo sapiens, NCI-H23, 72 h with compound, SRB, n/a = non-active compound, read-out: NCI-H23 IC50; for NCI-H23 SI: selectivity coefficient vs normal BALB/3T3 cells
# [2] = system: PFSK-1 (malignant primitive neuroectodermal tumour); assay: In vitro cytotoxicity, SRB assay, PFSK-1; conditions: for IC50: Homo sapiens, PFSK-1, 72 h with compound, SRB, n/a = non-active compound, read-out: PFSK-1 IC50; for PFSK-1 SI: selectivity coefficient vs normal BALB/3T3 cells
# [3] = system: A2780 (human ovarian cancer); assay: In vitro cytotoxicity, SRB assay, A2780; conditions: for IC50: Homo sapiens, A2780, 72 h with compound, SRB, n/a = non-active compound, read-out: A2780 IC50; for A2780 SI: selectivity coefficient vs normal BALB/3T3 cells
# [4] = system: A2780Cis (cisplatin-resistant human ovarian cancer); assay: In vitro cytotoxicity, SRB assay, A2780Cis; conditions: for IC50: Homo sapiens, A2780cis, 72 h, read-out: A2780Cis IC50 (nM)
# A375 (human melanoma) = assay: In vitro cytotoxicity, SRB assay, A375; conditions: for IC50: Homo sapiens, A-375, 72 h with compound, SRB, n/a = non-active compound, read-out: A375 IC50; for A375 SI: selectivity coefficient vs normal BALB/3T3 cells
# Hs294T (human melanoma) = assay: cells; conditions: for IC50: Homo sapiens, Hs 294T, 72 h with compound, SRB, n/a = non-active compound, read-out: Hs294T IC50; for Hs294T SI: selectivity coefficient vs normal BALB/3T3 cells
# [5] = system: PLC/PRF/5 (human liver cancer); assay: cells; conditions: for IC50: Homo sapiens, PLC-PRF-5, 72 h with compound, SRB, n/a = non-active compound, read-out: PLC/PRF/5 IC50; for PLC/PRF/5 SI: selectivity coefficient vs normal BALB/3T3 cells
# [6] = system: SNU-16 (human gastric cancer); assay: cells; conditions: for IC50: Homo sapiens, SNU-16, 72 h with compound, MTT, n/a = non-active compound, read-out: SNU-16 IC50; for SNU-16 SI: selectivity coefficient vs normal BALB/3T3 cells
# [7] = system: KG-1 (human acute myeloid leukaemia); assay: In vitro cytotoxicity, MTT assay, KG-1; conditions: for IC50: Homo sapiens, 72 h with compound, MTT, n/a = non-active compound; for KG-1 SI: selectivity coefficient vs normal BALB/3T3 cells
# [8] = system: MIA PaCa-2 (human pancreatic cancer); assay: cells; conditions: for IC50: Homo sapiens, MIA PaCa-2, 72 h with compound, SRB, n/a = non-active compound, read-out: MIA PaCa-2 IC50; for MIA PaCa-2 SI: selectivity coefficient vs normal BALB/3T3 cells
# [9] = system: BALB/3T3 (normal mouse fibroblasts); assay: In vitro cytotoxicity, SRB assay, normal BALB/3T3 fibroblasts; conditions: Mus musculus, BALB/3T3; normal cells; 72 h with compound, SRB; n/a = non-active compound; read-out: BALB/3T3 IC50
Compound,IC50 [1] [nM],NCI-H23 SI [1],IC50 [2] [nM],PFSK-1 SI [2],IC50 [3] [nM],A2780 SI [3],A2780Cis RI [4],A2780Cis SI [4],IC50 [4] [nM],IC50 (A375 (human melanoma)) [nM],A375 SI (A375 (human melanoma)),IC50 (Hs294T (human melanoma)) [nM],Hs294T SI (Hs294T (human melanoma)),IC50 [5] [nM],PLC/PRF/5 SI [5],IC50 [6] [nM],SNU-16 SI [6],IC50 [7] [nM],KG-1 SI [7],IC50 [8] [nM],other results
CCOC(=O)CNC(=S)N[C@@H]1C=C[C@]2(O[C@H]([C@@H](CC)C(=O)[C@@H](C)[C@@H](O)[C@H](C)[C@@H]3O[C@@H]([C@@H](CC)C(=O)O)CC[C@@H]3C)[C@@H](C)C[C@H]2C)O[C@@]12CC[C@@](C)([C@H]1CC[C@](O)(CC)[C@H](C)O1)O2 [FLC-00352-1],234,0.5,45.2,2.5,2.14,53.8,1.8,30.4,3.77,459,0.3,416,0.3,32.9,3.5,52.8,2.2,30,3.8,50.9,MIA PaCa-2 SI [8]: 2.3; IC50 [9]: 115 nM
C=CCNC(=O)N[C@@H]1C=C[C@]2(O[C@H]([C@@H](CC)C(=O)[C@@H](C)[C@@H](O)[C@H](C)[C@@H]3O[C@@H]([C@@H](CC)C(=O)O)CC[C@@H]3C)[C@@H](C)C[C@H]2C)O[C@@]12CC[C@@](C)([C@H]1CC[C@](O)(CC)[C@H](C)O1)O2 [FLC-00353-1],410,0.6,13.4,16.9,1.14,199.8,1.1,180.6,1.26,107,2.1,612,0.4,31.5,7.2,88.6,2.6,34.3,6.6,28.9,MIA PaCa-2 SI [8]: 7.8; IC50 [9]: 227 nM
CCNC(=O)N[C@@H]1C=C[C@]2(O[C@H]([C@@H](CC)C(=O)[C@@H](C)[C@@H](O)[C@H](C)[C@@H]3O[C@@H]([C@@H](CC)C(=O)O)CC[C@@H]3C)[C@@H](C)C[C@H]2C)O[C@@]12CC[C@@](C)([C@H]1CC[C@](O)(CC)[C@H](C)O1)O2 [FLC-00358-1],113,2.0,32.3,6.9,3.32,67.0,0.7,98.1,2.27,208,1.1,1640,0.1,52.8,4.2,67.9,3.3,67.7,3.3,45.6,MIA PaCa-2 SI [8]: 4.9; IC50 [9]: 223 nM
CC[C@@H](C(=O)[C@@H](C)[C@@H](O)[C@H](C)[C@@H]1O[C@@H]([C@@H](CC)C(=O)O)CC[C@@H]1C)[C@H]1O[C@]2(C=C[C@@H](NC(=O)Nc3ccc(F)cc3F)[C@]3(CC[C@@](C)([C@H]4CC[C@](O)(CC)[C@H](C)O4)O3)O2)[C@H](C)C[C@@H]1C [FLC-00359-1],148,0.5,19.4,3.8,1.62,45.1,0.7,65.3,1.12,228,0.3,212,0.3,38.6,1.9,9.57,7.6,13.1,5.6,37.7,MIA PaCa-2 SI [8]: 1.9; IC50 [9]: 73 nM
CC[C@@H](C(=O)[C@@H](C)[C@@H](O)[C@H](C)[C@@H]1O[C@@H]([C@@H](CC)C(=O)O)CC[C@@H]1C)[C@H]1O[C@]2(C=C[C@@H](NC(=O)NCCc3ccccc3)[C@]3(CC[C@@](C)([C@H]4CC[C@](O)(CC)[C@H](C)O4)O3)O2)[C@H](C)C[C@@H]1C [FLC-00362-1],62.4,2.5,38.4,4.0,11.3,13.6,1.1,12.9,11.9,281,0.5,473,0.3,32,4.8,17,9.0,36.8,4.2,73.8,MIA PaCa-2 SI [8]: 2.1; IC50 [9]: 153 nM
CC[C@@H](C(=O)[C@@H](C)[C@@H](O)[C@H](C)[C@@H]1O[C@@H]([C@@H](CC)C(=O)O)CC[C@@H]1C)[C@H]1O[C@]2(C=C[C@@H](NC(=O)Nc3ccc(F)cc3)[C@]3(CC[C@@](C)([C@H]4CC[C@](O)(CC)[C@H](C)O4)O3)O2)[C@H](C)C[C@@H]1C [FLC-00363-1],2.78,22.4,4.06,15.3,2,31.1,0.7,44.3,1.41,37.3,1.7,27.3,2.3,13,4.8,4.46,14.0,11.7,5.3,19.3,MIA PaCa-2 SI [8]: 3.2; IC50 [9]: 62.2 nM
CCCCNC(=S)N[C@@H]1C=C[C@]2(O[C@H]([C@@H](CC)C(=O)[C@@H](C)[C@@H](O)[C@H](C)[C@@H]3O[C@@H]([C@@H](CC)C(=O)O)CC[C@@H]3C)[C@@H](C)C[C@H]2C)O[C@@]12CC[C@@](C)([C@H]1CC[C@](O)(CC)[C@H](C)O1)O2 [FLC-00368-1],18.4,7.1,18.6,7.0,3.54,37.1,0.8,44.2,2.97,89.1,1.5,152,0.9,74.2,1.8,16,8.2,28.2,4.7,88.1,MIA PaCa-2 SI [8]: 1.5; IC50 [9]: 131 nM
